Assay results: PMC11279465, “Dual Inhibitors of P-gp and Carbonic Anhydrase XII (hCA XII) against Tumor Multidrug Resistance with Piperazine Scaffold” (Molecules, 2024)

Assays:
Format in all cases: cell-based, human
K562/DOX cells [1] = assay: Intrinsic cytotoxicity (MTT); settings: compound alone at 3 µM, 72 h
Method: Compounds were first studied at 1 and 3 µM concentrations to evaluate their intrinsic cytotoxicity in both the parental K562 and the resistant K562/DOX cell lines, using the MTT assay. All compounds had no intrinsic cytotoxicity in the parental line.
(§1) The intrinsic toxicity of the studied compounds was determined by an MTT assay. K562 and K562/DOX were exposed for 72 h with compounds at 1 and 3 µM concentrations while HT29, A549, HT29/DOX and A549/DOX cells were incubated for 48 h with compounds used at different concentrations (from 10 nM to 50 µM). The percentage of growth compared to the untreated control was transformed into histograms with the GraphPad Prism 5 program.

HT29/DOX cells = assay: TBARS (lipid peroxidation, 4-HNE kit); settings: 1 µM
Method: (§2) Selected compounds have been tested for their cytotoxic activity at 24 h on HT29/DOX and A549/DOX cells and on the parental HT29 and A549 cells by MTT assay. To evaluate the mechanisms involved in CS, reactive oxygen species (ROS) were measured using the fluorescent probe 5-(and-6)-chloromethyl-2′,7′-dichlorodihydro-fluorescein diacetate-acetoxymethyl ester (DCFDA-AM), as previously reported. The results were expressed as nmol/mg cellular proteins. The amount of TBARS, as an index of lipoperoxidation, was measured with the Lipid Peroxidation (4-HNE) Assay Kit (Abcam, Cambridge, UK) that evaluates the 4-hydroxy-nonenale, one of the TBARS Results were expressed as nmoles/mg mitochondrial protein.

A549/DOX cells = assay: TBARS (lipid peroxidation, 4-HNE kit); settings: 1 µM
Method: as §2

K562/DOX cells [2] = assay: Doxorubicin cytotoxicity enhancement assay (MTT); settings: 72 h
How it was run: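 K562/DOX cells exposed 72 h to varying doxorubicin concentrations plus 1 or 3 µM test compound. Viability by MTT absorbance, expressed as percentage of untreated control cells.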

A549 cells = assay: Intrinsic cytotoxicity (MTT); settings: compound alone at 1 µM; parental A549; 48 h
Method: (§3) All compounds were preliminarily studied to evaluate their intrinsic cytotoxicity at different concentrations (from 10 nM to 50 µM) in the parental HT29 and A549 and the resistant HT29/DOX and A549/DOX cells using the MTT assay.
as §1

HT29 cells = assay: Intrinsic cytotoxicity (MTT); settings: compound alone at 1 µM; parental HT29; 48 h
Method: as §3, §1

| Structure (SMILES) | reduction of cellular viability (K562/DOX cells [1]) | increase of TBARS levels compared to the control (HT29/DOX cells) | increase of TBARS levels compared to the control (A549/DOX cells) | RF (Reversal Fold: IC50 of doxorubicin alone / in presence of modulator) (K562/DOX cells [2]; compound at 1 µM) | toxicity (A549 cells) | toxicity (HT29 cells) | RF (Reversal Fold: IC50 of doxorubicin alone / in presence of modulator) (K562/DOX cells [2]; compound at 3 µM) |
| --- | --- | --- | --- | --- | --- | --- | --- |
| COc1ccc(C(CCCN2CCN(CCCCOc3ccc4ccc(=O)oc4c3)CC2)c2ccc(OC)cc2)cc1 [Compound 27, 7-(4-(4-(4,4-Bis(4-methoxyphenyl)butyl)piperazin-1-yl)butoxy)-2H-chromen-2-one] | 30–50% | 2.6 times | 4 times | 8.1 | ≥ 35% | ≥ 35% | – |
| COc1ccc(C(CCCN2CCN(CCCOc3ccc4oc(=O)ccc4c3)CC2)c2ccc(OC)cc2)cc1 [Compound 32, 6-(3-(4-(4,4-Bis(4-methoxyphenyl)butyl)piperazin-1-yl)propoxy)-2H-chromen-2-one] | – | 2.6 times | 4 times | 3.6 | ≥ 35% | ≥ 35% | 7.9 |
